This note sets out measurements from ChEMBL document CHEMBL1914415, “A sucrose-derived scaffold for multimerization of bioactive peptides” (Bioorg Med Chem, 2011).

Active and inactive are the calls of the source. The rule behind the calls is not given here.

For assay [1], the target named is Melanocortin receptor 4 (Homo sapiens) (UniProt P32245). In words: Displacement of Eu-DTAP-NDP-alpha-MSH-NH2 from MC4 receptor expressed in human HEK293 cells at 10^-5 to 10^-12 M after 1 hr by time resolved fluorescence method. Type of assay: cell-based.
In assay [2] the target is T1, Gastrin/cholecystokinin type B receptor (Homo sapiens) (UniProt P32239).
T1 sequence (whole entry): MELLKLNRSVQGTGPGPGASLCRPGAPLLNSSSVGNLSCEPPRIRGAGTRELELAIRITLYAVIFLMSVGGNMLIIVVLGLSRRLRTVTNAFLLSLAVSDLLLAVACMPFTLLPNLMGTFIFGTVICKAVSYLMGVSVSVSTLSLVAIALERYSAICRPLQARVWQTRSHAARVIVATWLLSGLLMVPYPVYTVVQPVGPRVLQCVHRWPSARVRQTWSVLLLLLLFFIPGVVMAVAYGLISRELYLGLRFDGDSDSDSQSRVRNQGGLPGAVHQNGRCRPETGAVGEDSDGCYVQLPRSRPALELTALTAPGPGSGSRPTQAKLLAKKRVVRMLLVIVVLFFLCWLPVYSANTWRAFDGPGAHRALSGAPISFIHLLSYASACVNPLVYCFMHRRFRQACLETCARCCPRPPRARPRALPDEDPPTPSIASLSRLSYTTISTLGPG
In words: Displacement of Eu-DTAP-CCK8-NH2 from CCK2 receptor expressed in human HEK293 cells at 10^-5 to 10^-12 M after 1 hr by time resolved fluorescence method. Type of assay: cell-based.

Chain of Melanocortin receptor 4 (Homo sapiens) (P32245 whole entry): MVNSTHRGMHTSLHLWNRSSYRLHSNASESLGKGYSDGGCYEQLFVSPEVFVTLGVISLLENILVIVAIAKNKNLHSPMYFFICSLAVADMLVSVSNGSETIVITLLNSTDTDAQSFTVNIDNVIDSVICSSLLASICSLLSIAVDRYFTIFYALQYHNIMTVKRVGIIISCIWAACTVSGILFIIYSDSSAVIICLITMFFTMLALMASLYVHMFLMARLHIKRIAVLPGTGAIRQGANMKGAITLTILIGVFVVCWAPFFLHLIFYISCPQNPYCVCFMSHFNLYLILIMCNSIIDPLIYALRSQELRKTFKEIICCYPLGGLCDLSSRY

Turning to `NC(=O)[C@H](CO)NC(=O)CCCCCn1cc(CCCCOC[C@H]2O[C@@](COCCCCc3cn(CCCCCC(=O)N[C@@H](CO)C(N)=O)nn3)(O[C@H]3O[C@H](COCCCCc4cn(CCCCCC(=O)N[C@@H](CO)C(N)=O)nn4)[C@@H](OCCCCc4cn(CCCCCC(=O)N[C@@H](CO)C(N)=O)nn4)[C@H](OCCCCc4cn(CCCCCC(=O)N[C@@H](CO)C(N)=O)nn4)[C@H]3OCCCCc3cn(CCCCCC(=O)N[C@@H](CO)C(N)=O)nn3)[C@@H](OCCCCc3cn(CCCCCC(=O)N[C@@H](CO)C(N)=O)nn3)[C@@H]2OCCCCc2cn(CCCCCC(=O)N[C@@H](CO)C(N)=O)nn2)nn1`, the outcome in assay [1] and in assay [2] was inactive.
